Laboratory results as given in US12172975B2, “1H-indazole carboxamides as receptor-interacting protein kinase 1 inhibitors (RIPK1)” (BRISTOL-MYERS SQUIBB COMPANY, priority 2018, dated 2024).
Counter-ions that a name gives are not always drawn. Like-named read-outs stand apart in the source and are kept apart here.

Key:
[1] = test system: MLKL phosphorylation in HT29-L23 human colorectal adenocarcinoma cells; test: MLKL Phosphorylation High-Content Assay; format: cell-based; settings: 6 h, necroptosis induced with TNFα, SMAC mimetic and Z-VAD, read-out: pMLKL (IC50)
In short: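 Following fixation and staining for phospho-S358 MLKL with Hoechst nuclear counterstain, high-content imaging quantified phosphorylation in HT29-L23 cells challenged 6 h with TNFα 35 ng/mL, SMAC mimetic 700 nM and Z-VAD 140 nM. Nec-1s at 6.25 μM defined full inhibition; 4-parameter logistic fits yielded IC50 and Ymax.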

[2] = target: His-GST-TVMV-hRIPK1 (1-324) (Homo sapiens (Human), UniProt Q13546); test: RIPK1 HTRF Binding Assay; settings: read-out: RIPK1 HTRF (IC50); FRET probe displacement, 1 h at rt
Chain of His-GST-TVMV-hRIPK1 (1-324) (Q13546 1-324): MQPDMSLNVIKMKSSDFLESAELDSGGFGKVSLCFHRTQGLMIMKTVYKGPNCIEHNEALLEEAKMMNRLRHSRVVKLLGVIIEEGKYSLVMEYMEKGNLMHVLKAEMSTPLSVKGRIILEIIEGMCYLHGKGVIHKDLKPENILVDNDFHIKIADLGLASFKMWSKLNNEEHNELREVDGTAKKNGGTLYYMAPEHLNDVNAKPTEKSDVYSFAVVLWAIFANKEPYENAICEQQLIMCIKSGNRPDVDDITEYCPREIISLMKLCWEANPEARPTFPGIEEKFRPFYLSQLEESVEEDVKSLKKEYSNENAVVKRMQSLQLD

Structure (SMILES)	IC50 ([1]; Homo sapiens)	IC50 [2]	IC50 [1]
CNC(=O)c1n[nH]c2cc(-c3cnc(OC)c(C(=O)NCc4cccc(OC(F)(F)F)c4F)c3)ccc12 [Example 119, 6-[5-({[2-fluoro-3-(trifluoro-methoxy)phenyl]methyl}-carbamoyl)-6-methoxy-pyridin-3-yl]-N-methyl-1H-indazole-3-carboxamide]	110 nM	33 nM	–
CNC(=O)c1n[nH]c2cc(-c3cnc(OC)c(C(=O)NC4CCCC(C(=O)N(C)C)C4)c3)ccc12 (centres unmarked) [Example 120, 6-(5-{[3-(dimethylcarbam-oyl)cyclohexyl]carbamoyl}-6-methoxypyridin-3-yl)-N-methyl-1H-indazole-3-carbox-amide]	–	11 nM	100 nM
CCN(CC)C(=O)C1CCCC(NC(=O)c2cc(-c3ccc4c(C(=O)NC)n[nH]c4c3)cnc2OC)C1 (centres unmarked) [Example 121, 6-(5-{[3-(diethylcarbamoyl)-cyclohexyl]carbamoyl}-6-methoxypyridin-3-yl)-N-methyl-1H-indazole-3-carbox-amide]	–	6.1 nM	7.5 nM
CCN(C)C(=O)C1CCCC(NC(=O)c2cc(-c3ccc4c(C(=O)NC)n[nH]c4c3)cnc2OC)C1 (centres unmarked) [Example 122, 6-[5-({3-[ethyl(methyl)carbam-oyl]cyclohexyl}carbamoyl)-6-methoxypyridin-3-yl]-N-methyl-1H-indazole-3-carboxamide]	–	12 nM	120 nM
CCCN(CC1CC1)C(=O)C1CCCC(NC(=O)c2cc(-c3ccc4c(C(=O)NC)n[nH]c4c3)cnc2OC)C1 (centres unmarked) [Example 123, 6-[5-({3-[(cyclopropylmethyl)-(propyl)carbamoyl]cyclohexyl}-carbamoyl)-6-methoxypyridin-3-yl]-N-methyl-1H-indazole-3-carboxamide]	75 nM	21 nM	–
CCN(CC1CCC1)C(=O)C1CCCC(NC(=O)c2cc(-c3ccc4c(C(=O)NC)n[nH]c4c3)cnc2OC)C1 (centres unmarked) [Example 124, 6-[5-({3-[(cyclobutylmethyl)-(ethyl)carbamoyl]cyclohexyl}-carbamoyl)-6-methoxypyridin-3-yl]-N-methyl-1H-indazole-3-carboxamide]	83 nM	26 nM	–
CNC(=O)c1n[nH]c2cc(-c3cnc(OC)c(C(=O)NC4CCCC(C(=O)N(C)C5CC5)C4)c3)ccc12 (centres unmarked) [Example 125, 6-[5-({3-[cyclopropyl(methyl)-carbamoyl]cyclohexyl}carbam-oyl)-6-methoxypyridin-3-yl]-N-methyl-1H-indazole-3-carbox-amide]	–	12 nM	8.8 nM
CNC(=O)c1n[nH]c2cc(-c3cnc(OC)c(C(=O)NCc4cc(F)cc(F)c4OC(C)C)c3)ccc12 [Example 126, 6-[5-({[3,5-difluoro-2-(propan-2-yloxy)phenyl]methyl}-carbamoyl)-6-methoxypyridin-3-yl]-N-methyl-1H-indazole-3-carboxamide]	6.9 nM	4.2 nM	–
CNC(=O)c1n[nH]c2cc(-c3cnc(OC)c(C(=O)NCc4c(F)cccc4OC(C)C)c3)ccc12 [Example 127, 6-[5-({[2-fluoro-6-(propan-2-yloxy)phenyl]methyl}-carbamoyl)-6-methoxy-pyridin-3-yl]-N-methyl-1H-indazole-3-carboxamide]	3.7 nM	2.3 nM	–
CNC(=O)c1n[nH]c2cc(-c3cnc(OC)c(C(=O)NCc4cc(F)cc(F)c4OCC4CC4)c3)ccc12 [Example 128, 6-[5-({[2-(cyclopropylmeth-oxy)-3,5-difluorophenyl]-methyl}carbamoyl)-6-meth-oxypyridin-3-yl]-N-methyl-1H-indazole-3-carboxamide]	3.1 nM	2.3 nM	–
CNC(=O)c1n[nH]c2cc(-c3cnc(OC)c(C(=O)NCc4cc(F)ccc4OC(C)C)c3)ccc12 [Example 130, 6-[5-({[5-fluoro-2-(propan-2-yloxy)phenyl]methyl}carbam-oyl)-6-methoxy-pyridin-3-yl]-N-methyl-1H-indazole-3-carboxamide]	–	1.9 nM	3.9 nM
CNC(=O)c1n[nH]c2cc(-c3cnc(OC)c(C(=O)NCc4ccccc4OC4CCC(C)C4)c3)ccc12 (centres unmarked) [Example 131, 6-{6-methoxy-5-[({2-[(3-methylcyclopentyl)oxy]-phenyl}methyl)carbamoyl]-pyridin-3-yl}-N-methyl-1H-indazole-3-carboxamide]	2.3 nM	10 nM	–
CNC(=O)c1n[nH]c2cc(-c3cnc(OC)c(C(=O)NC4CCCC(C(=O)N5CC(F)(F)C5)C4)c3)ccc12 (centres unmarked) [Example 132, 6-(5-{[3-(3,3-difluoroazet-idine-1-carbonyl)cyclohexyl]-carbamoyl}-6-methoxypyridin-3-yl)-N-methyl-1H-indazole-3-carboxamide, TFA]	–	35 nM	140 nM
CNC(=O)c1n[nH]c2cc(-c3cnc(OC)c(C(=O)N4CCC[C@@H](Cc5ccc(F)cc5)C4)c3)ccc12 [Example 134, 6-{5-[(3S)-3-[(4-fluorophenyl)-methyl]piperidine-1-carbonyl]-6-methoxy-pyridin-3-yl}-N-methyl-1H-indazole-3-carbox-amide, TFA]	–	17 nM	7.3 nM
CNC(=O)c1n[nH]c2cc(-c3cnc(OC)c(C(=O)NCc4cc(OC(F)(F)F)ccc4F)c3)ccc12 [Example 137]	–	1.6 nM	2.9 nM
CNC(=O)c1n[nH]c2cc(-c3cnc(OC)c(C(=O)NCC4CCCCC4)c3)ccc12 [Example 138, 6-{5-[(cyclohexylmethyl)-carbamoyl]-6-methoxy-pyridin-3-yl}-N-methyl-1H-indazole-3-carboxamide]	89 nM	12 nM	–
CNC(=O)c1n[nH]c2cc(-c3cnc(OC)c(C(=O)NCC4(C(=O)OC5CCCC5)CC4)c3)ccc12 [Example 140, cyclopentyl 1-[({2-methoxy-5-[3-(methylcarbamoyl)-1H-indazol-6-yl]pyridin-3-yl}-formamido)methyl]cyclopro-pane-1-carboxylate]	–	6.9 nM	18 nM
CNC(=O)c1n[nH]c2cc(-c3cnc(OC)c(C(=O)NCc4cc(C(F)(F)F)ccn4)c3)ccc12 [Example 143, 6-[6-methoxy-5-({[4-(trifluoro-methyl)pyridin-2-yl]methyl}-carbamoyl)pyridin-3-yl]-N-methyl-1H-indazole-3-carboxamide]	26 nM	28 nM	–
CNC(=O)c1n[nH]c2cc(-c3cnc(OC)c(C(=O)NCC[C@H](O)c4ccc(Cl)cc4)c3)cc(F)c12 [Example 145, 6-(5-{[(3S)-3-(4-chloro-phenyl)-3-hydroxypropyl]-carbamoyl}-6-methoxy-pyridin-3-yl)-4-fluoro-N-methyl-1H-indazole-3-carboxamide]	200 nM	9.6 nM	–
CNC(=O)c1n[nH]c2cc(-c3cnc(OC)c(C(=O)N[C@@H](C)CC(=O)OC(C)(C)C)c3)cc(F)c12 [Example 146, tert-butyl (3S)-3-({5-[4-fluoro-3-(methylcarbamoyl)-1H-indazol-6-yl]-2-methox-pyridin-3-yl}formamido)-butanoate]	400 nM	69 nM	–
[2H]C([2H])([2H])NC(=O)c1n[nH]c2cc(-c3cnc(OC)c(C(=O)NCC(C)(C)C(=O)OC4CCOCC4)c3)ccc12 [Example 148, oxan-4-yl 3-[(2-methoxy-5-{3-[(deutero)methylcarbamoyl]-1H-indazol-6-yl}pyridin-3-yl)formamido]-2,2-dimethyl-propanoate]	96 nM	54 nM	–
[2H]C([2H])([2H])NC(=O)c1n[nH]c2cc(-c3cnc(OC)c(C(=O)NCC(C)(C)C(=O)OC(C)(C)C)c3)ccc12 [Example 149, tert-butyl 3-[(2-methoxy-5-{3-[(deutero)methylcarbamoyl]-1H-indazol-6-yl}pyridin-3-yl)-formamido]-2,2-dimethyl-propanoate]	74 nM	33 nM	–
[2H]C([2H])([2H])NC(=O)c1n[nH]c2cc(-c3cnc(OC)c(C(=O)NCCC(=O)OC(C)(C)C)c3)ccc12 [Example 150, tert-butyl 3-[(2-methoxy-5-{3-[(deutero)methylcarbamoyl]-1H-indazol-6-yl}pyridin-3-yl)-formamido]propanoate]	110 nM	32 nM	–
[2H]C([2H])([2H])NC(=O)c1n[nH]c2cc(-c3cnc(OC)c(C(=O)NC(C)c4ccccc4OC(F)(F)F)c3)ccc12 (centres unmarked) [Example 152, 6-[6-methoxy-5-({1-[2-(tri-fluoromethoxy)phenyl]ethyl}-carbamoyl)pyridin-3-yl]-N-(deutero)methyl-1H-indazole-3-carboxamide]	3.3 nM	20 nM	–
[2H]C([2H])([2H])NC(=O)c1n[nH]c2cc(-c3cnc(OC)c(C(=O)NCc4ccccc4OC(F)(F)F)c3)ccc12 [Example 153]	6.3 nM	2.9 nM	–
CNC(=O)c1n[nH]c2cc(-c3cnc(C)c(C(=O)N[C@H]4CC[C@@H](c5ccccc5)C4)c3)ccc12 [Example 154, N-methyl-6-(6-methyl-5-{[(1S,3R)-3-phenylcyclopentyl]carbamoyl}-pyridin-3-yl)-1H-indazole-3-carbox-amide]	–	2.9 nM	58 nM
CNC(=O)c1n[nH]c2cc(-c3cnc(C)c(C(=O)NCc4cc(F)ccc4OC4CCCC4)c3)ccc12 [Example 157, 6-[5-({[2-(cyclopentyloxy)-5-fluoro-phenyl]methyl}carbamoyl)-6-methylpyridin-3-yl]-N-methyl-1H-indazole-3-carboxamide, TFA]	6.8 nM	2.1 nM	–
CNC(=O)c1n[nH]c2cc(-c3cc(C(=O)NC(C)c4ccccc4OC(F)(F)F)c(OC)nc3C)ccc12 (centres unmarked) [Example 158, 6-[6-methoxy-2-methyl-5-({1-[2-(trifluoromethoxy)-phenyl]ethyl}carbamoyl)-pyridin-3-yl]-N-methyl-1H-indazole-3-carboxamide]	21 nM	35 nM	–
